System: cancer cell lines HCT-116, SCC VII, and A549
Type: cell-based

SMILES: O=C(CBr)N1CC([N+](=O)[O-])([N+](=O)[O-])C1 [Sample 2, 2-bromo-1-(3,3-dinitroazetidin-1-yl)ethanone]
- suppressing viability of cancer cell lines, compared to impact sensitive form of ABDNAZ (samples 1 and 3): more effective

Reference: patent publication US20240293360A1 (priority 2021, published 2024)
